# Measurements: article PMC10218498, “Exploring BenzylethoxyAryl Urea Scaffolds for Multitarget Immunomodulation Therapies” (International Journal of Molecular Sciences, 2023)
# Like-named read-outs stand apart in the source and are kept apart here.
# Tests used:
# Jurkat T cells = assay: MTT cell proliferation assay, Jurkat T cells; type: cell-based; conditions: Homo sapiens, 48 h of treatment
# Method: (§1) This assay allowed us to establish the corresponding IC50 values (expressed as the concentration, in μM, at which 50% of cell viability is achieved), shown in Table 1.
# (§2) In 96-well plates, 5 × 10^3 (HT-29, MCF-7, A549, HMEC-1, Jurkat, and HEK-293) cells per well were incubated with serial dilutions of the tested compounds in a total volume of 100 μL of their respective growth media. The 3-(4,5-dimethylthiazol-2-yl)-2,5-diphenyltetrazolium bromide (MTT; Sigma Chemical Co.) dye reduction assay in 96-well microplates was used. After 2 days of incubation (37 °C, 5% CO2 in a humid atmosphere), 10 μL of MTT (5 mg/mL in phosphate-buffered saline, PBS) was added to each well, and the plate was incubated for a further 3 h (37 °C). After that, the supernatant was discarded and replaced by 100 µL of DMSO to dissolve formazan crystals. The absorbance was then read at 550 nm by spectrophotometry. For all concentrations of compound, cell viability was expressed as the percentage of the ratio between the mean absorbance of treated cells and the mean absorbance of untreated cells. Three independent experiments were performed, and the IC50 values (i.e., concentration half inhibiting cell proliferation) were graphically determined using GraphPad Prism 4 software.
# VEGFR-2 = VEGFR-2 (Homo sapiens, UniProt P35968); assay: VEGFR-2 relative quantification by flow cytometry in MCF-7; type: cell-based; set-up: Both membrane and total PD-L1 and VEGFR-2 were relatively determined using DMSO-treated cells as a negative control; endogenous in cells; host or cells: MCF-7; conditions: MCF-7, 20 µM, 24 h, control = 100
# VEGFR-2, sequence (P35968 20-1356): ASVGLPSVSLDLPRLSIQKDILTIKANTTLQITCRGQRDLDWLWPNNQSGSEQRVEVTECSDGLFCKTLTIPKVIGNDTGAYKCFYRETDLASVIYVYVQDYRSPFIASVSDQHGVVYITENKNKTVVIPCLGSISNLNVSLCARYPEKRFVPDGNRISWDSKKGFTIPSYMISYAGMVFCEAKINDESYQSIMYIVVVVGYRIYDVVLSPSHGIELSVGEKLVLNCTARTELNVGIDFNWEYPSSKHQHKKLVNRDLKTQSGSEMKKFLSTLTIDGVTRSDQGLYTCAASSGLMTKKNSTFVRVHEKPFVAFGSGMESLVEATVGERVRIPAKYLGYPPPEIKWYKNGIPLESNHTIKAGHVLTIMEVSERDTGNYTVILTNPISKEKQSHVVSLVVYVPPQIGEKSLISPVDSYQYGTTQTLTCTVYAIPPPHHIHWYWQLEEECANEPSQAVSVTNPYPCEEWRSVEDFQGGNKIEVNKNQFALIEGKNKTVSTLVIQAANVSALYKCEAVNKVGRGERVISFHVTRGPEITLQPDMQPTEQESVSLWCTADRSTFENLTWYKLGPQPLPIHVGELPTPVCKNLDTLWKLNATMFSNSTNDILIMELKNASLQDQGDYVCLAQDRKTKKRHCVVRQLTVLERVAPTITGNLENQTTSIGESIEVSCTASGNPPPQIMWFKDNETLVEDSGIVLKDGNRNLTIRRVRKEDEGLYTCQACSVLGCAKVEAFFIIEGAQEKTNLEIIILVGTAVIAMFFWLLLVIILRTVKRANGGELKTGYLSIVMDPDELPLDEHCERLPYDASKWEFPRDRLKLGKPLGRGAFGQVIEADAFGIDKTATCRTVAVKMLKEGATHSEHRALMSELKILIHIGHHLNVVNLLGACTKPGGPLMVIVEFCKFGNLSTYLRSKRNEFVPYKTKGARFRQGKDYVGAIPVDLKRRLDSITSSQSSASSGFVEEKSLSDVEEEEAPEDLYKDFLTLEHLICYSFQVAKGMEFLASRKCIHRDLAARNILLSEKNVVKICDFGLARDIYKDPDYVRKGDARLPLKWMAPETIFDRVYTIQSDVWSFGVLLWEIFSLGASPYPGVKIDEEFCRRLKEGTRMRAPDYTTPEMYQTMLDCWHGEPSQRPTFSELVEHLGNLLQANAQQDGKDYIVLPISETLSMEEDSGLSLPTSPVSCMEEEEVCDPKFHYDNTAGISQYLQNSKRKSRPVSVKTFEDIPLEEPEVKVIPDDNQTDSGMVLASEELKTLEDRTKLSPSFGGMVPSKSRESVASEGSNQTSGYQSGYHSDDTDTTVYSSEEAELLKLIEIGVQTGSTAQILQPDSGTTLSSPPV
# Method: Then, we determined the effect of the selected compounds on the biological targets, PD-L1 and VEGFR-2, by flow cytometry. […] As usually, the assay was performed at a concentration of 20 µM for 24 h.
# (§3) To study the effect of the compounds on every biological target in cancer cell lines, the compounds were used at 20 µM dose.
# (§4) For the assay, 10^5 cells per well were incubated for 24 h with the corresponding dose of the tested compound in a total volume of 500 μL of their growth media.
# On the one hand, to detect total PD-L1 and VEGFR-2, after the cell treatments, they were collected and fixed with 4% in PBS paraformaldehyde.
# (§5) On the other hand, to detect membrane PD-L1 and VEGFR-2, the process was the same, avoiding the treatment with 0.5% in PBS TritonTM X-100 step.
# CD80 = CD80 relative quantification by flow cytometry in co-cultured THP-1; type: cell-based, human; conditions: 20 μM, related to non-treated cells
# Method: Reducing the expression of CD11b has become a promising target for immune modulation in anti-cancer therapies. For that reason, we decided to study the effect of our compounds on CD11b in THP-1 cells co-cultured with HT-29. We also determine the relative amount of CD80, a common surface marker for monocytes. This study was performed on the collected cell culture from each well and gating living THP-1 cell population.
# To study the effect of the compounds on every biological target in co-cultured THP-1 immune cells with cancer cell line HT-29, the compounds were incubated for 24 h/48 h as described before.
# To detect membrane CD11b and CD80, after the cell incubation, suspended THP-1 was collected from the cell culture of each sample well, fixed with 4% in PBS paraformaldehyde, and stained with FITC Mouse monoclonal Anti-Human CD80 (Sigma-Aldrich, S. Louis, MO, USA, SAB4700142) and Alexa Fluor® 647 Rabbit monoclonal Anti-CD11b (Merck, S. Louis, MO, USA, #MABF366).
# [1] = system: A-549 (pulmonary adenocarcinoma); assay: MTT cell proliferation assay, A-549; type: cell-based, human; conditions: for IC50: Homo sapiens, read-out: IC50 A-549; for SI (A-549) (IC50HEK293/A-549): selectivity index
# Method: The 3-(4,5-dimethylthiazol-2-yl)-2,5-diphenyltetrazolium bromide (MTT; Sigma Chemical Co.) dye reduction assay in 96-well microplates was used. […] After that, the supernatant was discarded and replaced by 100 µL of DMSO to dissolve formazan crystals. The absorbance was then read at 550 nm by spectrophotometry. For all concentrations of compound, cell viability was expressed as the percentage of the ratio between the mean absorbance of treated cells and the mean absorbance of untreated cells. Three independent experiments were performed, and the IC50 values (i.e., concentration half inhibiting cell proliferation) were graphically determined using GraphPad Prism 4 software.
# THP-1 cells = assay: Immune cell viability in monoculture and co-cultures with HT-29 by flow cytometry; type: cell-based, human; conditions: for THP-1 living cells compared to control (%), Monocult. THP-1: THP-1 monoculture, 20 μM; for THP-1 living cells compared to control (%), 1:5 HT-29/THP-1, 24 h / THP-1 living cells compared to control (%), 1:5 HT-29/THP-1, 48 h: co-culture 1:5 HT-29/THP-1, 20 μM; for THP-1 living cells compared to control (%), 2:1 HT-29/THP-1, 24 h / THP-1 living cells compared to control (%), 2:1 HT-29/THP-1, 48 h: co-culture 2:1 HT-29/THP-1, 20 μM
# Method: From the previous study, we also determined the effect of the selected compounds on the human monocyte cells THP-1 in the described co-cultures. We also assessed the effect of the compounds on the cell viability of monocultured THP-1.
# On the other hand, to study the effect of the compounds on the cell viability in co-culture with THP-1 cells, 10^5 or 2 × 10^5 of the HT-29 cells line per well were seeded and incubated for 24 h, then the medium was changed by one cell culture medium supplemented with IFN-γ (10 ng/mL; human, Invitrogen®, Waltham, MA, USA) and containing 5 × 10^5 or 105, respectively, of THP-1 per well and the corresponding compound at 20 μM or DMSO for the positive control. After 24 h/48 h of incubation, supernatants were collected to determine THP-1 living cells. Additionally, stain cancer cells were collected with trypsin. Both types of suspension cells were fixed with 4% in PBS paraformaldehyde and counted by flow cytometry.
# PD-L1 = PD-L1 (Homo sapiens, UniProt Q9NZQ7); assay: PD-L1 relative quantification by flow cytometry in A-549; type: cell-based; set-up: endogenous in cells; host or cells: A-549; conditions: A-549, 20 µM, 24 h, relative to DMSO control = 100
# PD-L1, sequence (Q9NZQ7 19-290): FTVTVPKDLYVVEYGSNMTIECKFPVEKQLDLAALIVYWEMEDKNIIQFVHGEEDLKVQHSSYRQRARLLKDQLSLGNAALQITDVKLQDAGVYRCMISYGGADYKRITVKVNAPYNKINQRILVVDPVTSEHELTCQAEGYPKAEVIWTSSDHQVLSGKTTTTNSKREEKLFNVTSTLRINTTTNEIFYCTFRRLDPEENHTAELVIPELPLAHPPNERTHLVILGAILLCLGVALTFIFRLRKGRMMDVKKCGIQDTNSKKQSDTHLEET
# Method: To assess the effect of the selected compounds on the biological targets PD-L1 and VEFGR-2, we performed the study on both cancer cell lines HT-29 and A-549 and by flow cytometry technique. […] For these assays, cells were incubated for 24 h in the presence of the corresponding compounds at 20 µM concentration.
# as §3, §4
# On the one hand, to detect total PD-L1 and VEGFR-2, after the cell treatments, they were collected and fixed with 4% in PBS paraformaldehyde. After fixation, a treatment with 0.5% in PBS TritonTM X-100 was performed, and finally, cells were stained with FITC Mouse monoclonal Anti-Human VEGFR-2 (ab184903) and Alexa Fluor® 647 Rabbit monoclonal Anti-PD-L1 (ab215251).
# as §5
# [2] = system: HEK-293 (human embryonic kidney cells); assay: MTT cell proliferation assay, HEK-293; type: cell-based; conditions: HEK293, 48 h of treatment
# Method: as §1, §2
# [3] = membrane THP-1, 1:5 HT-29/THP-1, 24 h
# [4] = membrane THP-1, 2:1 HT-29/THP-1, 48 h
SMILES,IC50 (Jurkat T cells),% VEGFR-2 Memb. (VEGFR-2),% VEGFR-2 Total (VEGFR-2),% CD80 (CD80; [3]),% CD80 (CD80; [4]),"IC50 ([1]; A549, MTT, 48 h of treatment)",SI (A-549) (IC50HEK293/A-549) [1],"THP-1 living cells compared to control (%), Monocult. THP-1 (THP-1 cells)","THP-1 living cells compared to control (%), 1:5 HT-29/THP-1, 24 h (THP-1 cells)","THP-1 living cells compared to control (%), 1:5 HT-29/THP-1, 48 h (THP-1 cells)","THP-1 living cells compared to control (%), 2:1 HT-29/THP-1, 24 h (THP-1 cells)","THP-1 living cells compared to control (%), 2:1 HT-29/THP-1, 48 h (THP-1 cells)",Total PD-L1 (%) (PD-L1),IC50 [2],"IC50 ([1]; A549, 48 h)"
"Cc1c(COc2ccc(CN3CCCCC3C(=O)O)cc2Br)cccc1-c1ccccc1 (stereo not shown) [BMS-8, reference compound]",> 100 µM,107 ± 4%,93%,101 ± 6%,101 ± 6%,6 ± 1 µM,10,99 ± 2%,94 ± 0%,93 ± 0%,101 ± 9%,97 ± 2%,96 ± 29%,60 ± 10 µM,–
COc1ccc(COc2cccc(NC(=O)Nc3ccc(F)cc3)c2)cc1 [Compound 2],> 100 µM,91 ± 12%,72 ± 10%,99 ± 5%,105 ± 1%,3.4 ± 0.8 µM,>29,111 ± 13%,97 ± 7%,105 ± 4%,90 ± 28%,105 ± 1%,107 ± 13%,> 100 µM,–
COc1ccc(COc2cccc(NC(=O)Oc3ccccc3)c2)cc1 [Compound 14],> 100 µM,89 ± 11%,110 ± 12%,99 ± 6%,102 ± 1%,–,>27,127 ± 12%,93 ± 9%,97 ± 9%,81 ± 6%,109 ± 2%,141 ± 1%,> 100 µM,3.7 ± 0.5 µM
COc1ccc(COc2cccc(NC(=O)Nc3ccc(Br)cc3)c2)cc1 [Compound 8],> 100 µM,82 ± 6%,88 ± 11%,95 ± 9%,103 ± 2%,1.6 ± 0.8 µM,>62,98 ± 10%,95 ± 12%,100 ± 11%,82 ± 14%,97 ± 9%,80 ± 7%,> 100 µM,–
COc1ccc(COc2cccc(NC(=O)Nc3ccc(OC)cc3)c2)cc1 [Compound 11],> 100 µM,81 ± 11%,83 ± 21%,102 ± 6%,103 ± 2%,12 ± 1 µM,>9,103 ± 7%,105 ± 4%,94 ± 9%,66 ± 24%,102 ± 5%,135 ± 18%,> 100 µM,–
